According to US5726156A, “Cytokine regulatory agents and methods of use in pathologies and conditions associated with altered cytokine levels” (Trega Biosciences, Inc., priority 1995, dated 1998):

Columns and labels:
[1] = system: arachidonic acid-induced ear swelling; assay: Arachidonic acid-induced ear swelling; assay type: in vivo, mice; conditions: 100 μg/mouse IP 30 min prior to AA; 60 min after AA
Procedure: Experiments were performed using female Balb/c mice weighing 18-23 grams. Saline or 100 μg EX-2 or EX-3 was administered IP, 30 min prior to topical application of arachidonic acid (AA). A 10 μl pipet was used to apply 10 μl AA solution (100 mg/ml ethanol; Calbiochem-Novabiochem; San Diego Calif.) to the inner and outer surfaces of the right ear of each mouse. Ten μl ethanol, alone, was applied to the inner and outer surface of the left ear of each mouse. Ear thickness was measured with a hand-held spring loaded caliper immediately before and 60 min after AA application. Increase in ear thickness was calculated by subtracting the change observed in the control ear from the change observed in AA-treated ear. The value for each group (saline and control) is the average of the swelling observed in the individual mice in each group. The percent reduction of swelling is based on the swelling observed in the saline control group.

[2] = system: disuse deconditioning; assay: Disuse deconditioning (tail suspension) in rats; assay type: in vivo; conditions: 1 or 5 μg/kg IP twice daily
Procedure: Adult male Sprague-Dawley rats (355-365 g) were used in this study. Animals were housed individually in standard rat cages and were acclimated on a treadmill for 4 days. The next day, a baseline tail bleed was performed, followed by a maximal treadmill stress test the day after. The day following the stress test, the animals were divided into the appropriate treatment and control groups and the animals were suspended by their tails in suspension cages, which simulates weightlessness and, therefore, deconditions the animals. Another group of control animals was placed in standard rat cages with grated flooring similar to that utilized in the suspension cages. All animals were housed one per cage and supplied with food and water ad libitum. Body weights and food consumptions were measured daily. Animals received twice daily IP injections of 1 μg/kg or 5 μg/kg body weight of EX-2 (treated), or 1 ml/kg body weight of saline (control). On day 10, all animals were stress tested on the treadmill until they reached exhaustion. Data on maximum VO2 and running time were collected and compared to pre-suspension results. On day 14, all animals were sacrificed, and blood, tissues, and organs were collected for further analysis. All procedures and tests were performed blind to avoid researcher subjectivity. Statistical significance (p<0.05) between groups was evaluated by ANOVA with Student-Newman-Keuls test for multiple comparisons. All data are reported as the mean ± standard error (SE).
All of the animals were subjected to the stress tests, which measured exercise time and maximal VO2. As well, levels of the oxidative enzyme soleus citrate synthase and tibia bone density were measured.
Soleus citrate synthase was attenuated by 50%.

[3] = system: LPS-induced PMN infiltration in lungs; assay: Adult respiratory distress syndrome: LPS-induced PMN count in broncho-alveolar lavage; assay type: in vivo, rats; conditions: 100 μg/kg IP; broncho-alveolar lavage 6 hr after intratracheal LPS
Procedure: These experiments were performed using a modification of the methods described by Ulich et al., Am. J. Pathol. 141:61-68 (1992) and by Wheelden et al., Lab. Animals 26:29-37 (1992), each of which is incorporated herein by reference. Male Harlan Sprague-Dawley rats were anesthetized using a mixture of 70 mg/kg ketamine and 6 mg/kg rompun injected IP. A 2-3 cm incision was made in the neck of each anesthetized rat and its trachea was exposed by blunt dissection of the surrounding soft tissue. The rats were suspended on a near vertical slab and intratracheal injections were performed by inserting into the exposed trachea, at a point 1 cm posterior to the larynx, a 25G×1/2 inch needle attached to a 1 cc syringe.
Each rat received 0.5 ml/kg of saline or 0.5 ml/kg of 10 mg/ml (5 mg/kg) LPS endotoxin via slow intratracheal administration. Immediately following administration of the LPS endotoxin, rats were injected IP with 1 ml/kg of either saline (control) or saline containing various concentrations of EX-2 (treated). The rats were maintained in the elevated position for 1-2 min to facilitate distribution of the LPS and saline into the lung. The incisions were closed and the rats were allowed to recover. […]
The total polymorphonuclear leukocytes (PMN; neutrophits) in the broncho-alveolar lavage fluid were counted in the EX-2-treated rats and compared with the number in the control rats.

[4] = Reduction in body weight, Zucker fa/fa and Fa/+ rats; assay type: in vivo
Procedure: Adult Zucker fatty rats (fa/fa; 325-350 g) or non-obese Zucker rats (Fa/+; 250-275 g) each were divided into two groups. One group each of fa/fa and Fa/+ rats received intraperitoneal (ip) injections of 250 μg/kg EX-2, 3×/day, for 86 days, followed by 2×/day treatments for an additional 29 days. The other group of fa/fa and Fa/+rats received saline on the same schedule.
Administration of EX-2 caused a significant decrease in the weight gain of fa/fa and of Fa/+ rats (see FIG. 4). Specifically, saline treated fa/fa rats gained about 360 g during the […], whereas EX-2 treated fa/fa rats only gained 275 g, representing a 24% decrease in weight gain. […] In Fa/+ rats, the decreased weight gain was more modest, but again correlated to fat mass rather than lean muscle mass.
In other experiments, fa/fa rats received 0.5-10 mg/kg EX-2, 2×/day, for 14 days (1-20 mg/day). […] This weight loss correlated with […] consumption by the EX-2 treated rats as compared to the controls.

[5] = system: morphine-induced respiratory depression; assay: Morphine-induced respiratory depression; assay type: in vivo, rabbits; conditions: 10 + 20 + 20 μg/kg/rabbit iv; end of experiment (80 min)
Procedure: Male Shelton rabbits (3-4 kg) were restrained and fitted around the thorax, just behind the front limbs, with a respiration transducer (Model F-RCT; Grass Instruments; Quincy Ma). The transducer was connected to a grass polygraph via an EKG cable. An intravenous line was established for drug administration by cannulating the marginal ear vein using a 25 G butterfly needle.
Rabbit breathing was allowed to stabilize, then morphine sulfate (2 mg/kg in 0.5 ml saline) was administered by intravenous (iv) injection and respiratory rate and depth were monitored for 10 min. A second dose of morphine was administered, then, after 10 min, EX-2 or EX-3 (10 μg/kg in 0.5 ml saline) was administered, iv, and rabbits were monitored for 20 min. Two additional doses of EX-2 or EX-3 (20 μg/kg in 1.0 ml saline) were administered at 20 min intervals, i.e., 40 min and 60 min after the first morphine injection.
Results were calculated as the percent change from baseline values and are expressed as the difference of the mean value of the treated group minus the mean value of the control group at the end of the experiment (80 min).

[6] = suspended rats, stress test day 10

## Ac-Nle-Gln-His-(D)Phe-Arg-(D)Trp-Gly-NH2 [EX-2]
[1]
  Reduction in arachidonic acid-induced Ear Swelling: 72%
[2]; 14 days suspension
  % Attenuation of suspension-induced decrease, Soleus Citrate Synthase: 50%
  % Attenuation of suspension-induced decrease, Tibia Bone Density: 50%
[2]; [6]
  % Attenuation of suspension-induced decrease, Exercise Time: 44%
  % Attenuation of suspension-induced decrease, Maximal VO2: 80%
[3]
  Reduction in LPS-induced PMN Count: 58%
[4]; Fa/+ (non-obese) rats, 250 μg/kg ip
  decreased weight gain: more modest
[4]; fa/fa rats, 250 μg/kg ip
  epididymal fat pad weight: decreased epididymal fat pad weight
[4]; fa/fa rats, 250 μg/kg ip 3×/day then 2×/day, 105 day treatment, saline about 360 g
  body weight gained: 275 g
[4]; fa/fa rats, 250 μg/kg ip, vs saline treated
  decrease in weight gain: 24%
[4]; fa/fa rats, 20 mg EX-2/day (10 mg/kg 2×/day), 14 days
  decrease in body weight: ~10%
[4]; fa/fa rats, 0.5-10 mg/kg 2×/day, 14 days, each group
  rate of weight gain: decreased rate of weight gain
[5]
  Reduction in Morphine-induced Respiratory Depression: 50%
